pIC50: −log10 of the molar value.

Test [1] relates to RT112/84 cell line (FGFR3-fusion). In words: Cancer cell line cell viability assay (Cell Titer-Glo), 72 hr. The following applies: Homo sapiens, RT112/84, RT112/84 cell line (FGFR3-fusion). The test is classed as cell-based. The method, boiled down:
(§1)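 RPMI1640/10% FBS for RT112/84 and MDA-MB-453; IMDM/20% FBS for KG-1; IMDM/10% FBS for HuH7. Cells plated overnight, dosed from 3 μM in 4-fold, 9-point series, incubated at 37° C, then lysed with Cell Titer-Glo 2.0; IC50 by sigmoidal fit.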
A general note: In ATP-based viability assays light output follows the ATP content of the culture.

Test [2] relates to KG-1 cell line (FGFR 1-fusion). The description is as above. It is filed as cell-based. The following applies: Homo sapiens, KG-1, KG-1 cell line (FGFR1-fusion). The procedure, abridged: as §1
Test [3] deals with KATO-III cell line (FGFR2 amplification). The test is described as above. The test is classed as cell-based. The note with it: Homo sapiens, KATO III. The method, boiled down:
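Luminescent ATP read-out (Cell Titer-Glo 2.0) after compound exposure, normalised to DMSO-only wells. Dosing: 9 concentrations, 4-fold steps, top 3 μM, triplicates. IC50 derived by log(inhibitor) vs. response 4-parameter fit.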

Test [4] relates to HuH7 cell line (FGF19 amplification). Briefly: Cancer cell line cell viability assay (Cell Titer-Glo), 120 hr. It is filed as cell-based. The note with it: Homo sapiens, Huh-7. The procedure, abridged:
as §1

The target in test [5] is T1, FGFR1 (Homo sapiens, UniProt P11362).
T1 construct: made in house; host or cells: E. coli (BL21-derived), T7 phage
T1 sequence (P11362 22-822): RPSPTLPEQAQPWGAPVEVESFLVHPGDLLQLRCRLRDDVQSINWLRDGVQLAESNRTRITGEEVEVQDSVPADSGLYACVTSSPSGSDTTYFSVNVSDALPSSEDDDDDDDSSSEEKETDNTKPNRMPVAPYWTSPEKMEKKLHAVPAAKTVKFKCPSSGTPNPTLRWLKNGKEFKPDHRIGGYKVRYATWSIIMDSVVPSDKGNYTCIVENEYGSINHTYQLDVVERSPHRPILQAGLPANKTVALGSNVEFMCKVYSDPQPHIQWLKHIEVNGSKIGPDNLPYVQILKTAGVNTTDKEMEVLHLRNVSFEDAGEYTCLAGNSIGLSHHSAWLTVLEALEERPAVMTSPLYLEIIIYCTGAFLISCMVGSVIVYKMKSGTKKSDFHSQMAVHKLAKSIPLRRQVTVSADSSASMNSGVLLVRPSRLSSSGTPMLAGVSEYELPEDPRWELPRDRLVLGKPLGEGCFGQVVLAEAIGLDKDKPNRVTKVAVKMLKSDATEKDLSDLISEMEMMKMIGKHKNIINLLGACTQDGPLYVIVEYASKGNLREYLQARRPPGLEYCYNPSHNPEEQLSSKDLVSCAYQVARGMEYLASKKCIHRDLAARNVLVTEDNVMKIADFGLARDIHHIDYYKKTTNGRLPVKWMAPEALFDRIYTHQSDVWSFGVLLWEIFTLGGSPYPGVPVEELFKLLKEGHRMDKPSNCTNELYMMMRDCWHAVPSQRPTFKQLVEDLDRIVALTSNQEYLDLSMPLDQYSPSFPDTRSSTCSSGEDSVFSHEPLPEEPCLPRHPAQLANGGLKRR
Briefly: Kinase binding assay (kinase-tagged T7 phage, affinity beads, qPCR), Kd. The following applies: read-out: FGFR1 (Kd nM). The procedure, abridged: (§2)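 Phage-tagged kinase capture on small-molecule affinity resin, compound competition, qPCR quantitation; Kd from Levenberg-Marquardt Hill fit.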
(In general: Real-time PCR tracks product formation cycle by cycle.)

The target of test [6] is T2, FGFR4 (Homo sapiens, UniProt P22455).
T2 construct: made in house; host or cells: E. coli (BL21-derived), T7 phage
T2 sequence (P22455 22-802): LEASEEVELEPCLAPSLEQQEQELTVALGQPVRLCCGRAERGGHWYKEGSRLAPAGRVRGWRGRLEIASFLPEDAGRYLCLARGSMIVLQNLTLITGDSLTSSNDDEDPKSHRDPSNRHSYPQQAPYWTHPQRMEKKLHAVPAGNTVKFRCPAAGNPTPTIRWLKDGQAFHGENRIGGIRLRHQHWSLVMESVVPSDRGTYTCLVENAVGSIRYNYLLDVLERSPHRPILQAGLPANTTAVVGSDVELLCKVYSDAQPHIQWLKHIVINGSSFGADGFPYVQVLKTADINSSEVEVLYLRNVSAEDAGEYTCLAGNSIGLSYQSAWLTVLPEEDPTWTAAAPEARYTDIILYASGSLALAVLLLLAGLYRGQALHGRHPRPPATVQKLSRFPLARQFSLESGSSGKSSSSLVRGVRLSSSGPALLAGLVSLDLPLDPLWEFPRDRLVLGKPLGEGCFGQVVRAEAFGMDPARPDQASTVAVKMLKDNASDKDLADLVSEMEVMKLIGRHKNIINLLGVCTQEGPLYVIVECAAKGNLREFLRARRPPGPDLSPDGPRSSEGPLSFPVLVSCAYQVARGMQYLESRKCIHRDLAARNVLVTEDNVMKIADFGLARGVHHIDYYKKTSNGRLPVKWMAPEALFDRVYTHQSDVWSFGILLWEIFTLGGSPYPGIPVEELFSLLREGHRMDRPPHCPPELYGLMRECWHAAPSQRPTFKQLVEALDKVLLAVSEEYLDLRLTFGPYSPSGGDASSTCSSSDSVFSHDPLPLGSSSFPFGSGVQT
Described as above. The following applies: read-out: FGFR4 (Kd nM). The method, boiled down: as §2

The target of test [7] is T3, FGFR3 (V555M) (Homo sapiens, UniProt P22607, V555M).
T3 construct: made in house; host or cells: E. coli (BL21-derived), T7 phage
T3 sequence (P22607 23-806 V555M): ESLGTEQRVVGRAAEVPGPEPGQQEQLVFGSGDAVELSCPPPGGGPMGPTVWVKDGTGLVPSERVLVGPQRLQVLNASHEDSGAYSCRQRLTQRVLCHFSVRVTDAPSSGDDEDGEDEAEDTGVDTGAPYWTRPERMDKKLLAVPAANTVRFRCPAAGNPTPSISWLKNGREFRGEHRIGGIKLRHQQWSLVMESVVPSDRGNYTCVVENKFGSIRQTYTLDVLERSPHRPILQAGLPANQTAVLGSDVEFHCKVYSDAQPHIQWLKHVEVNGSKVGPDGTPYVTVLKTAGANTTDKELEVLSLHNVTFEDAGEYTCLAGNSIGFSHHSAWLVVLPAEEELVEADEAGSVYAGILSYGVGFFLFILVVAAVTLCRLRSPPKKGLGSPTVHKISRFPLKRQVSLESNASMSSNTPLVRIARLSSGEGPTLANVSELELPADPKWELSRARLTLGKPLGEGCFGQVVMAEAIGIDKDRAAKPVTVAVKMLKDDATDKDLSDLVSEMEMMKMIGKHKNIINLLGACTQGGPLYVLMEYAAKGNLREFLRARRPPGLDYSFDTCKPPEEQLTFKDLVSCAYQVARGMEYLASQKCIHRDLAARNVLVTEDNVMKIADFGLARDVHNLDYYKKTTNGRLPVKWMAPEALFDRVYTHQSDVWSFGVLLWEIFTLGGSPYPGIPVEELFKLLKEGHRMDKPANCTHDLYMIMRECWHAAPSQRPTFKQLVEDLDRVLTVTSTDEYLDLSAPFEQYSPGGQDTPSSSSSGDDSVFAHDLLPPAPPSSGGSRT
The description is as above. The following applies: V555M mutant; read-out: FGFR3 (V555M) (Kd nM). The procedure, abridged: as §2

The target in test [8] is T4, FGFR3 (Homo sapiens, UniProt P22607).
T4 construct: made in house; host or cells: E. coli (BL21-derived), T7 phage
T4 sequence (P22607 23-806): as the sequence (P22607 23-806 V555M) above, with M533V counted along it
Described as above. The following applies: read-out: FGFR3 (Kd nM). The procedure, abridged: as §2

Test [9] has as its target T5, FGFR2 (Homo sapiens, UniProt P21802).
T5 construct: made in house; host or cells: E. coli (BL21-derived), T7 phage
Described as above. The note with it: read-out: FGFR2 (Kd nM). The method, boiled down:
as §2

T5 sequence (P21802 22-821): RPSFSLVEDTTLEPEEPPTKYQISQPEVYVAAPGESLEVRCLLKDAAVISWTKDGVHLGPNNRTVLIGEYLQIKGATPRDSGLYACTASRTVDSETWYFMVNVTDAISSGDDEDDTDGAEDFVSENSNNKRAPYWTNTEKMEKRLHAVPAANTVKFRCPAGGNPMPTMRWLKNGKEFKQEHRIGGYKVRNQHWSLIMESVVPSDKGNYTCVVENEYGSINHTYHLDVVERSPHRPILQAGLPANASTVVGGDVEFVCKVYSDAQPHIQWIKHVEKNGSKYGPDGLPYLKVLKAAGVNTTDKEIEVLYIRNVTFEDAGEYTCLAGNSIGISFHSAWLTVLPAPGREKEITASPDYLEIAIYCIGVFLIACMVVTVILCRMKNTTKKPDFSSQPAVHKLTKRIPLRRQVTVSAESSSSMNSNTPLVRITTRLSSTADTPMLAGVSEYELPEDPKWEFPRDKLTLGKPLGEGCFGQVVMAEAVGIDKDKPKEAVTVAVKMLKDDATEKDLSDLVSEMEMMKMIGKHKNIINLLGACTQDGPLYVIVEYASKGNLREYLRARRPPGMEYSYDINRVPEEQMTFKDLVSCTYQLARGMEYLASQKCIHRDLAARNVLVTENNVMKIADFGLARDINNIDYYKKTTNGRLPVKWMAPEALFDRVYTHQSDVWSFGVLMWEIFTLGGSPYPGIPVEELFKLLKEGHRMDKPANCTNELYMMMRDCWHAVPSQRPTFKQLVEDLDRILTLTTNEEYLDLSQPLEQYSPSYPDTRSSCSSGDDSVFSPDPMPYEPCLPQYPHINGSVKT

With `C[C@@H](Oc1ccc2[nH]nc(-c3cnc(N4CC(C)(CN5CCCC5)C4)c(C#N)c3)c2c1)c1c(Cl)cncc1Cl` [Example 123, (R)-5-(5-(1-(3,5-dichloropyridin-4-yl)ethoxy)-1H-indazol-3-yl)-2-(3-methyl-3-(pyrrolidin-1-ylmethyl)azetidin-1-yl)nicotinonitrile], the negative-log IC50 (pIC50) (as a rule, the negative decadic logarithm of the IC50, by convention in mol/L) in [1] was 6.70 to 7.30; in test [2], 6.00 to 6.70; in test [3] it was 6.00 to 6.70; in test [4], 7.30 to 10.00. Besides, the Kd (commonly the free concentration of one partner at which half of the binding sites on the other are occupied at equilibrium, for simple one-to-one binding) in [5] lay within 50 to 300 nM; in test [6], 1 to 50 nM; in [7] it was 1 to 50 nM; in test [8], 1 to 50 nM; in [9], 1 to 50 nM.
For `COc1cc2[nH]nc(-c3cnc(N4CC(C)(CN(C)C)C4)c(C#N)c3)c2cc1O[C@H](C)c1c(Cl)cncc1Cl` [Example 49, (R)-5-(5-(1-(3,5-dichloropyridin-4-yl)ethoxy)-6-methoxy-1H-indazol-3-yl)-2-(3-((dimethylamino)methyl)-3-methylazetidin-1-yl)nicotinonitrile], the pIC50 in test [1], in test [2], in test [3] and in [4] was 7.30 to 10.00 each time. The Kd in test [5], in [6], in test [7], in test [8] and in test [9] was 1 to 50 nM in each case.
As to `C[C@@H](Oc1ccc2[nH]nc(-c3cnc(N4CC(C)(NCC(F)F)C4)c(C#N)c3)c2c1)c1c(Cl)cncc1Cl` [Example 22, (R)-5-(5-(1-(3,5-dichloropyridin-4-yl)ethoxy)-1H-indazol-3-yl)-2-(3-((2,2-difluoroethyl)amino)-3-methylazetidin-1-yl)nicotinonitrile], the pIC50 is 6.70 to 7.30 in test [1], 6.00 to 6.70 in test [2], 6.00 to 6.70 in test [3] and 7.30 to 10.00 in test [4]. For the same compound, the equilibrium dissociation constant (Kd) in test [5] is 50 to 300 nM; in test [6] it was 1 to 50 nM; in test [7], 1 to 50 nM; in test [8], 1 to 50 nM; in [9], 50 to 300 nM.
Consider `CC(C)NC1(C)CN(c2ncc(-c3n[nH]c4ccc(O[C@H](C)c5c(Cl)cncc5Cl)cc34)cc2C#N)C1` [Example 48, (R)-5-(5-(1-(3,5-dichloropyridin-4-yl)ethoxy)-1H-indazol-3-yl)-2-(3-(isopropylamino)-3-methylazetidin-1-yl)nicotinonitrile], for which the pIC50 in test [1] is 6.70 to 7.30; in [2], 6.00 to 6.70; in test [3] it was 6.00 to 6.70; in [4] it was 7.30 to 10.00. Also, the Kd in test [5], in test [6], in test [7], in test [8] and in test [9] was 1 to 50 nM each time.
As to `COc1cc2[nH]nc(-c3cnc(N4CC(C)(N[C@H]5CCOC5)C4)c(C#N)c3)c2cc1O[C@H](C)c1c(Cl)cncc1Cl` [Example 24, 5-(5-((R)-1-(3,5-dichloropyridin-4-yl)ethoxy)-6-methoxy-1H-indazol-3-yl)-2-(3-methyl-3-(((S)-tetrahydrofuran-3-yl)amino)azetidin-1-yl)nicotinonitrile], the pIC50 in [1] was 7.30 to 10.00; in [2] it was 6.70 to 7.30; in test [3] it was 6.70 to 7.30; in [4] it was 7.30 to 10.00. In addition, the Kd in [5], in [6], in test [7], in [8] and in test [9] was 1 to 50 nM each time.
As to `C[C@@H](Oc1ccc2[nH]nc(-c3cnc(N4CC(C)(N5CCC5)C4)c(C#N)c3)c2c1)c1c(Cl)cncc1Cl` [Example 28, (R)-5-(5-(1-(3,5-dichloropyridin-4-yl)ethoxy)-1H-indazol-3-yl)-2-(3′-methyl-[1,3′-biazetidin]-1′-yl)nicotinonitrile], the pIC50 in [1] was 7.30 to 10.00; in [2], 6.70 to 7.30; in test [3], 6.70 to 7.30; in [4], 7.30 to 10.00. Moreover, the Kd in test [5], in test [6], in test [7], in test [8] and in test [9] was 1 to 50 nM in each case.
Turning to `COc1cc2[nH]nc(-c3cnc(N4CC(C)(NCC5(O)CC5)C4)c(C#N)c3)c2cc1O[C@H](C)c1c(Cl)cncc1Cl` [Example 105], the pIC50 is 7.30 to 10.00 in test [1], 6.70 to 7.30 in test [2], 6.70 to 7.30 in test [3] and 7.30 to 10.00 in test [4]. In addition, the Kd in test [5], in test [6], in [7], in [8] and in test [9] was 1 to 50 nM throughout.
In the case of `C=CCNC1(C)CN(c2ncc(-c3n[nH]c4cc(OC)c(O[C@H](C)c5c(Cl)cncc5Cl)cc34)cc2C#N)C1` [Example 147, (R)-2-(3-(allylamino)-3-methylazetidin-1-yl)-5-(5-(1-(3,5-dichloropyridin-4-yl)ethoxy)-6-methoxy-1H-indazol-3-yl)nicotinonitrile], the pIC50 in [1] is 7.30 to 10.00; in test [2] it was 6.70 to 7.30; in [3], 6.70 to 7.30; in test [4] it was 7.30 to 10.00. The dissociation constant Kd in test [5], in test [6], in test [7], in [8] and in test [9] was 1 to 50 nM in each case.
On to `C[C@@H](Oc1ccc2[nH]nc(-c3cnc(N4CC(C)(NCC5CC5)C4)c(C#N)c3)c2c1)c1c(Cl)cncc1Cl` [Example 27, 2-[3-(Cyclopropylmethylamino)-3-methyl-azetidin-1-yl]-5-[5-[(1R)-1-(3,5-dichloro-4-pyridyl)ethoxy]-1H-indazol-3-yl]pyridine-3-carbonitrile], for which the pIC50 was 6.70 to 7.30 in test [1], 6.00 to 6.70 in test [2], 6.00 to 6.70 in [3] and 6.70 to 7.30 in test [4]. The dissociation constant Kd in [5] is 1 to 50 nM; in [6], 1 to 50 nM; in test [7], 1 to 50 nM; in [8], 1 to 50 nM; in test [9], 50 to 300 nM.
For `C[C@@H](Oc1ccc2[nH]nc(-c3cnc(N4CC(C)(N[C@H]5CCOC5)C4)c(C#N)c3)c2c1)c1c(Cl)cncc1Cl` [Example 20, 5-(5-((R)-1-(3,5-dichloropyridin-4-yl)ethoxy)-1H-indazol-3-yl)-2-(3-methyl-3-(((S)-tetrahydrofuran-3-yl)amino)azetidin-1-yl)nicotinonitrile], the negative logarithm of the IC50 (pIC50) in [1] was 6.70 to 7.30; in [2] it was 6.00 to 6.70; in test [3], 6.70 to 7.30; in test [4], 7.30 to 10.00. Moreover, the Kd in test [5], in [6], in test [7], in [8] and in test [9] was 1 to 50 nM each time.
Consider `CC[C@H](C)NC1(C)CN(c2ncc(-c3n[nH]c4cc(OC)c(O[C@H](C)c5c(Cl)cncc5Cl)cc34)cc2C#N)C1` [Example 144, 5-[5-[(1R)-1-(3,5-dichloro-4-pyridyl)ethoxy]-6-methoxy-1H-indazol-3-yl]-2-[3-methyl-3-[[(1S)-1-methylpropyl]amino]aze-tidin-1-yl]pyridine-3-carbonitrile], for which the negative logarithm of the IC50 (pIC50) in test [1] was 7.30 to 10.00; in [2] it was 6.70 to 7.30; in [3], 6.70 to 7.30; in [4], 7.30 to 10.00. In addition, the Kd in test [5], in [6], in test [7], in test [8] and in test [9] was 1 to 50 nM in each case.

Source of the values: patent US20250368666A1, “INDAZOLE COMPOUNDS” (TYRA BIOSCIENCES, INC., priority 2022, published 2025).
